Test results reported in patent US10094834B2, “Method of selecting individualized brain cancer therapy” (TURUN YLIOPISTO, priority 2012, dated 2018).
Entries after “also recorded” stand apart in the source; their conditions may differ.

Tests used:
Type in all cases: cell-based, human
T98G glioblastoma cells [1] = assay: Apoptosis assay by sub-G0/G1 fraction estimation (nuclear fragmentation, PI/FACS); conditions: for apoptotic nuclear fragmentation (sub-G0/G1 fraction): T98G cells depleted of PME-1 (PME-1 siRNA 48 hrs), drug treatment 24 hrs; for effect on PME-1 siRNA and STS mediated apoptosis (nuclear fragmentation): T98G
Protocol: The percentage of the sub-G0/G1 fraction containing fragmented nuclei stained with Propidium iodide (PI) was taken as a measure of apoptotic cells. 3.5-4×10^4 cells were plated in 24-well plates, transfected with siRNA for 48 hrs, and then treated with indicated concentration of test compounds in fresh media. After 24 hrs of treatment, both floating and adherent cells were harvested by centrifugation. Cell pellets were resuspended in 400 μl of hypotonic PI buffer, containing 40 mM Tri-sodium citrate (Merck), 0.3% Triton X-100 (Sigma-Aldrich) and 50 μg/ml Propidium iodide (Sigma-Aldrich) in PBS, and incubated at room temperature for 10 minutes in dark. The flow cytometric analysis of PI stained nuclei was performed and the recorded data was analyzed using a FACScan flow cytometer and software (Becton Dickinson) respectively.
In experiments using pan-caspase inhibitor, cells were kept in growth media containing 30 μM Z-VAD-FMK starting from 18 hrs after transfection till the PI staining.
The T98G cells transfected with siRNA for 48 hrs were given drug treatments for 24 hrs and were subsequently lysed, and their nuclei were stained using hypotonic propidium iodide buffer. The lysates were analysed for changes in the sub-G0/G1 fraction of fragmented nuclei by flow cytometry (FACS) (FIG. 1B). Condensation and fragmentation of nucleus is a key biochemical feature of apoptosis and sub-G0/G1 analysis has been widely used for detection of apoptosis (FEBS Lett., 1986, 194(2):347-50; Cytometry, 1991, 12(4):323-329; Nature Protocols, 2006, 1:1458-1461).

[2] = system: Caspase-3/7 in T98G cells; assay: Caspase-3 and -7 activity, Caspase-Glo 3/7 Assay
Protocol: Caspase-3 and -7 activity was measured by luminescence based method, which utilize a substrate containing Caspase-3 and -7 target peptide DEVD, named Caspase-Glo 3/7 Assay (Promega Corp.). Assays were performed in white polystyrene 96-well plates (Nunc, Thermo Fisher Scientific Inc.) according to manufacturer's instructions and luminescence was measured with Perkin Elmer Victor2 Plate Reader.

T98G glioblastoma cells [3] = assay: Cell viability assay, CellTiter-glo (CTG)
Protocol: Cell viability was determined by CellTiter-glo (CTG) assay which measures the cellular ATP levels as an indicator of metabolically active and viable cells. CTG reagent kit was purchased from Promega Corp. and assays were performed according to their recommendations. Assays were performed in white polystyrene 96-well plates (Nunc, Thermo Fisher Scientific Inc.) and luminescence was measured with Perkin Elmer Victor2 Plate Reader.

U87MG glioblastoma cells = assay: Colony formation assay, U87MG; conditions: PME-1 depleted versus scrambled siRNA, 2 days of treatment
Excerpt: (§1) Cells plated in very low density (4-6×10^3) in 6-well plates were allowed to grow for about 7 days until they form small colonies. These cells were then transfected with Scrambled or PME-1 siRNA using Lipofectamine RNAiMAX reagent (Invitrogen) according to the manufacturer's instructions. After 48 hrs, treatments were given with indicated concentration of chemical drugs for another 48 hrs. Cell colonies were washed with PBS, fixed with 3.7% formaldehyde and stained with 0.2% crystal violet solution (made in 10% ethanol) for 15 minutes at room temperature each. Excess stain was removed by repeated washings with PBS. Plates were dried and pictures were taken with Olympus SP-600UZ camera or Epson perfection […] scanner and analysed with ImageJ.

[4] = system: U251MG glioblastoma cells; assay: Colony formation assay, U251MG; conditions: PME-1 depleted versus scrambled siRNA, 2 days of treatment
Excerpt: as §1

[5] = system: U118MG glioblastoma cells; assay: Colony formation assay, U118MG
Excerpt: (§2) Cells plated in very low density (4-6×10^3) in 6-well plates were allowed to grow for about 7 days until they form small colonies. These cells were then transfected with Scrambled or PME-1 siRNA using Lipofectamine RNAiMAX reagent (Invitrogen) according to the manufacturer's instructions. After 48 hrs, treatments were given with indicated concentration of chemical drugs for another 48 hrs. Cell colonies were washed with PBS, fixed with 3.7% formaldehyde and stained with 0.2% crystal violet solution (made in 10% ethanol) for 15 minutes at room temperature each. Excess stain was removed by repeated washings with PBS. Plates were dried and pictures were taken with Olympus SP-600UZ camera or Epson perfection V700 scanner and analysed with ImageJ.
(§3) Next, the effect of PME-1 expression on the sensitivity of glioblastoma cells to STS was tested by colony formation assay in T98G glioblastoma cells and another glioblastoma cell line U118MG. For this experiment, these cells were grown in 6-well plates until the formation of small colonies which were then transfected with Scrambled or PME-1 siRNA for 48 hrs followed by treatment with STS at the indicated concentrations for another 48 hrs. […] Similar results were obtained with both glioblastoma cell lines.

T98G glioblastoma cells [6] = assay: Colony formation assay, T98G
Excerpt: as §2, §3

[7] = PME-1 siRNA 48 hrs then drug 48 hrs
[8] = scrambled siRNA (intact PME-1), drug 48 hrs

For TRAIL, the “apoptotic nuclear fragmentation (sub-G0/G1 fraction)” value (T98G glioblastoma cells [1]) was “did not show the same trend”.
For `C=C1[C@@H](O)[C@@H]2O[C@]3(CC[C@H](/C=C/[C@@H](C)[C@@H]4CC(C)=C[C@@]5(O[C@H](C[C@@](C)(O)C(=O)O)CC[C@H]5O)O4)O3)CC[C@H]2O[C@@H]1[C@@H](O)C[C@H](C)[C@H]1O[C@@]2(CCCCO2)CC[C@H]1C` [okadaic acid], the “effect on PME-1 siRNA and STS mediated apoptosis (nuclear fragmentation)” value (T98G glioblastoma cells [1]; PP2A inhibitor pre-treatment 24 hrs prior STS treatment) was “sufficient to rescue cells”.
“PME-1 siRNA: PME-1 siRNA 5′-GGA AGU GAG UCU AUA AGC A-3′; SEQ ID NO:1 (GGAAGUGAGUCUAUAAGCA; listed as RNA, chemistry not given here)” was tested, and the “increase of Caspase-3/7 activity” value ([2]; PME-1 depletion alone) was “more than 2 fold” and the “cell viability (CTG)” value (T98G glioblastoma cells [3]; PME-1 siRNA alone) was “reduced cell viability by small fraction”.
`CC1CNCCN1S(=O)(=O)c1cccc2cnccc12` (centres unmarked) [H7] was tested, and the “apoptotic nuclear fragmentation (sub-G0/G1 fraction)” value (T98G glioblastoma cells [1]) was “moderate”.
For `C[C@]12O[C@H](C[C@]1(O)CO)n1c3ccccc3c3c4c(c5c6ccccc6n2c5c31)CNC4=O` [CEP-701, (9S,10S,12R)-2,3,9,10,11,12-Hexahydro-10-hydroxy-10-(hydroxymethyl)-9-methyl-9,12-epoxy-1H-diindolo[1,2,3-fg:3′,2′,1′-kl]pyrrolo[3,4-i][1,6]benzo di-azocin-1-one], the “apoptotic nuclear fragmentation (sub-G0/G1 fraction)” value (T98G glioblastoma cells [1]) was “levels even higher than STS itself”.
For `CO[C@@H]1[C@H](N(C)C(=O)c2ccccc2)C[C@H]2O[C@]1(C)n1c3ccccc3c3c4c(c5c6ccccc6n2c5c31)C(=O)NC4` [PKC412, [9S-(9α, 10β,11β,13α)]-N-(2,3,10,11,12,13-Hexahydro-10-methoxy-9-methyl-1-oxo-9,13-epoxy-1H,9H-diindolo[1,2,3-gh:3′,2′,1′-lm]pyrrolo[3,4-j][1,7]benzodiazonin-11-yl)-N-methyl benzamide], the “cell killing activity, colony formation” value (U87MG glioblastoma cells) was “enhanced the cell killing activity”, the “apoptotic nuclear fragmentation (sub-G0/G1 fraction)” value (T98G glioblastoma cells [1]) was “levels even higher than STS itself” and the “cell killing activity, colony formation” value [4] was “enhanced the cell killing activity”.
`CN[C@@H]1C[C@H]2O[C@@](C)([C@@H]1OC)n1c3ccccc3c3c4c(c5c6ccccc6n2c5c31)C(=O)NC4` [STS, [9S-(9α,10β,11β,13α)]-2,3,10,11,12,13-Hexa-hydro-10-methoxy-9-methyl-11-(methylamino)-9,13-epoxy-1H,9H-diindolo[1,2,3-gh:3′,2′,1′-lm]pyrrolo[3,4-j][1,7]benzo diazonin-1-one] was tested, and the “increase of Caspase-3/7 activity” value ([2]; PME-1 depletion in combination with STS treatment) was “above 6 fold”, the “cell viability (CTG)” value (T98G glioblastoma cells [3]; PME-1 siRNA plus STS treatment) was “drastic decrease in the cell viability” and the “cell killing activity, colony formation” value (U87MG glioblastoma cells) was “enhanced the cell killing activity”. For the same compound, the “colony formation (colonogenic potential)” value [5, 7] was “almost complete loss of colonies”, the “colony formation (colonogenic potential)” value [5, 8] was “did not respond well” and the “apoptotic nuclear fragmentation (sub-G0/G1 fraction)” value (T98G glioblastoma cells [1]) was “very high level of nuclear fragmentation; also recorded: induce apoptosis in a dose dependent manner; also recorded: highly sensitive to STS induced cell death even at lowest concentrations”. For the same compound, the “concentration at which drug alone started inducing cell death” value (T98G glioblastoma cells [1]; control (Scrambled siRNA transfected) T98G cells) was “higher than 50 nM”, the “concentration at which limited cell death was observed with drug alone” value (T98G glioblastoma cells [1]; untransfected T98G cells) was “higher than 30 nM” and the “cell killing activity, colony formation” value [4] was “enhanced the cell killing activity”. The “colony formation (colonogenic potential)” value (T98G glioblastoma cells [6]; [7]) was “almost complete loss of colonies” and the “colony formation (colonogenic potential)” value (T98G glioblastoma cells [6]; [8]) was “did not respond well”.
`COC(=O)[C@@]1(O)C[C@H]2O[C@]1(C)n1c3ccccc3c3c4c(c5c6ccccc6n2c5c31)C(=O)NC4` [K252a] was tested, and the “cell killing activity, colony formation” value (U87MG glioblastoma cells) was “enhanced the cell killing activity”, the “apoptotic nuclear fragmentation (sub-G0/G1 fraction)” value (T98G glioblastoma cells [1]) was “levels even higher than STS itself” and the “cell killing activity, colony formation” value [4] was “enhanced the cell killing activity”.
With z-VAD-fmk the “effect on PME-1 siRNA and STS mediated apoptosis (nuclear fragmentation)” value (T98G glioblastoma cells [1]; PME-1 siRNA plus STS, pan-caspase inhibitor 30 μM throughout the experiment) was “complete reversal”.
In the case of `CN[C@@H]1C[C@H]2O[C@@](C)([C@@H]1OC)n1c3ccccc3c3c4c(c5c6ccccc6n2c5c31)C(=O)N[C@H]4O` [UCN-01, (9S)-2,3,10,11,12,13-Hexahydro-3α-hydroxy-10α-methoxy-9-methyl-11α-methyl amino-9β,13β-epoxy-1H,9H-diindolo[1,2,3-gh:3′,2′,1′-lm]pyrrolo[3,4-j][1,7]benzo diazonin-1-one], the “apoptotic nuclear fragmentation (sub-G0/G1 fraction)” value (T98G glioblastoma cells [1]) is reported as “levels even higher than STS itself”.
For `O=C1NC(=O)c2c1c1c3ccccc3n3c1c1c2c2ccccc2n1C1CCC3O1` [SB 218078, 9,10,11,12-Tetrahydro-9,12-epoxy-1H-diindolo[1,2,3-fg:3′,2′,1′-kl]pyrrolo[3,4-i][1,6]benzodi-azocine-1,3(2H)-dione], the “apoptotic nuclear fragmentation (sub-G0/G1 fraction)” value (T98G glioblastoma cells [1]) was “moderate levels of apoptosis at higher concentration”.
